Counter-ions that a name gives are not always drawn.
Target: human PDE10A (UniProt Q9Y233)
Assay: Measurement of PDE activity (recombinant enzyme, HTRF cAMP kit)
Assay type: biochemical
Conditions: Table 1, substrate 20 nM for PDE10, 60 minutes at 29 C, read-out: IC50
Procedure, shortened: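 HTRF detection of cAMP left after hydrolysis, expressed as percent of uninhibited control to derive IC50. Reaction: serially diluted inhibitor mixed with recombinant enzyme, started with 20 nM cAMP, 60 min at 29 °C in Tris-HCl pH 7.5 buffer containing MgCl2 and BSA.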

Sequence of human PDE10A (Q9Y233 290-1055 limits assumed): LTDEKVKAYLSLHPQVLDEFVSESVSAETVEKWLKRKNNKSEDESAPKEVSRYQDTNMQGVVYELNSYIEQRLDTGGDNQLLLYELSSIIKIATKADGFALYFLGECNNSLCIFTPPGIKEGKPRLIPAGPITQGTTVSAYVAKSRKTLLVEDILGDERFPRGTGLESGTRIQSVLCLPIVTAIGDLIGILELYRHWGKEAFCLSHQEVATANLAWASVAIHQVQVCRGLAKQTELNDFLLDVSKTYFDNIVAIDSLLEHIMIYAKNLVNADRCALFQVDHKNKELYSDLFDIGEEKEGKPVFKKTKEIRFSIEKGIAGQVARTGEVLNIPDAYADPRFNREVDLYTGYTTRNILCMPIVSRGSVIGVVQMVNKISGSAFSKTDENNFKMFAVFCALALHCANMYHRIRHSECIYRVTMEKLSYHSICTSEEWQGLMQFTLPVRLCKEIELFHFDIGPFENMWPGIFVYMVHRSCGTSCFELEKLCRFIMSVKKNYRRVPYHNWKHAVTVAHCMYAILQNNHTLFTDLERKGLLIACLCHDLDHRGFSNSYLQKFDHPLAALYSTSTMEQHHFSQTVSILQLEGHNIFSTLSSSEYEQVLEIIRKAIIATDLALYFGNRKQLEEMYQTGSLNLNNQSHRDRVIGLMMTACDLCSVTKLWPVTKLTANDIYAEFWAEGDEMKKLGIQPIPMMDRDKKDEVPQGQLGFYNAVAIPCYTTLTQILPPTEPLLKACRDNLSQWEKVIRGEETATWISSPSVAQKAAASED

SMILES | IC50
O=c1c2c(N3CC4COCC4C3)cccc2cnn1CCc1cn2ccccc2n1 (stereo not shown) [Example 176, 2-[2-(Imidazo[1,2-a]pyridin-2-yl)ethyl]-8-(tetrahydro-1H-furo[3,4-c]pyrrol-5(3H)-yl)phthalazin-1(2H)-one hydrochloride] | < 100 nM
O=c1c2c(N3CCC(F)(F)CC3)cccc2cnn1CCc1cn2ccccc2n1 [Example 179, 8-(4,4-Difluoropiperidin-1-yl)-2-[2-(imidazo[1,2-a]pyridin-2-yl)ethyl]phthalazin-1(2H)-one] | 100 to 200 nM
O=c1c2c(N3CCCCC3)cccc2cnn1CCc1cn2ccccc2n1 [Example 181, 2-[2-(Imidazo[1,2-a]pyridin-2-yl)ethyl]-8-(piperidin-1-yl)phthalazin-1(2H)-one hydrochloride] | 200 to 500 nM
O=c1c2c(N3CCCOCC3)cccc2cnn1CCc1cn2ccccc2n1 [Example 190, 2-[2-(Imidazo[1,2-a]pyridin-2-yl)ethyl]-8-(1,4-oxazepan-4-yl)phthalazin-1(2H)-one hydrochloride] | 100 to 200 nM
CC(C)(C)OC(=O)N1CC=C(c2cccc3cnn(CCc4cn5ccccc5n4)c(=O)c23)CC1 [Example 191, tert-Butyl 4-{3-[2-(imidazo[1,2-a]pyridin-2-yl)ethyl]-4-oxo-3,4-dihydrophthalazin-5-yl}-3,6-dihydropyridine-1(2H)-carboxylate] | 200 to 500 nM
O=c1c2cccc(-c3ccncc3)c2cnn1CCc1ccc2ccccc2n1 [Example 192, 5-(Pyridin-4-yl)-2-[2-(quinolin-2-yl)ethyl]phthalazin-1(2H)-one hydrochloride] | < 100 nM
O=c1c2cccc(-c3cncnc3)c2cnn1CCc1ccc2ccccc2n1 [Example 193, 5-(Pyrimidin-5-yl)-2-[2-(quinolin-2-yl)ethyl]phthalazin-1(2H)-one hydrochloride] | < 100 nM
Cn1nccc1-c1cccc2c(=O)n(CCc3ccc4ccccc4n3)ncc12 [Example 194, 5-(1-Methyl-1H-pyrazol-5-yl)-2-[2-(quinolin-2-yl)ethyl]phthalazin-1(2H)-one] | < 100 nM
O=c1c2cccc(N3CCS(=O)(=O)CC3)c2cnn1CCc1ccc2ccccc2n1 [Example 195, 5-(1,1-Dioxidothiomorpholin-4-yl)-2-[2-(quinolin-2-yl)ethyl]phthalazin-1(2H)-one] | 100 to 200 nM
O=c1c2cccc(-c3cccnc3)c2cnn1CCc1cn2ccccc2n1 [Example 196, 2-[2-(Imidazo[1,2-a]pyridin-2-yl)ethyl]-5-(pyridin-3-yl)phthalazin-1(2H)-one] | < 100 nM
O=c1c2cccc(-c3cncnc3)c2cnn1CCc1cn2ccccc2n1 [Example 197, 2-[2-(Imidazo[1,2-a]pyridin-2-yl)ethyl]-5-(pyrimidin-5-yl)phthalazin-1(2H)-on] | < 100 nM
O=c1c2cccc(N3CCOCC3)c2cnn1CCc1cn2ccccc2n1 [Example 198, 2-[2-(Imidazo[1,2-a]pyridin-2-yl)ethyl]-5-(morpholin-4-yl)phthalazin-1(2H)-one hydrochloride] | < 100 nM
O=c1c2cccc(N3CC4COCC4C3)c2cnn1CCc1cn2ccccc2n1 (stereo not shown) [Example 199, 2-[2-(Imidazo[1,2-a]pyridin-2-yl)ethyl]-5-(tetrahydro-1H-furo[3,4-c]pyrrol-5(3H)-yl)phthalazin-1(2H)-one hydrochloride] | < 100 nM
O=c1c2ccccc2c(-c2cncnc2)nn1CCc1cn2ccccc2n1 [Example 200, 2-[2-(Imidazo[1,2-a]pyridin-2-yl)ethyl]-4-(pyrimidin-5-yl)phthalazin-1(2H)-one] | < 100 nM
O=c1c2ccccc2c(N2CCOCC2)nn1CCc1cn2ccccc2n1 [Example 201, 2-[2-(Imidazo[1,2-a]pyridin-2-yl)ethyl]-4-(morpholin-4-yl)phthalazin-1(2H)-one] | 200 to 500 nM
O=c1c2c(-c3ccncc3O)csc2ccn1CCc1ccc2ccccc2n1 [Example 203, 3-(3-Hydroxypyridin-4-yl)-5-[2-(quinolin-2-yl)ethyl]thieno[3,2-c]pyridin-4(5H)-one hydrochloride] | 200 to 500 nM
